What all share (assay): Test C pre-/postemergence test
One assay concerns blackgrass. It counts as in vivo, Alopecurus myosuroides. From the text:
(§1) Seeds of plant species selected from blackgrass (Alopecurus myosuroides), downy brome (Bromus tectorum), green foxtail (Setaria viridis), Italian ryegrass (Lolium multiflorum), wheat (Triticum aestivum), wild oat (Avena fatua), catchweed bedstraw (Galium aparine), Russian thistle (Salsola kali), […] (Cynodon dactylon), Surinam grass (Brachiaria decumbens), cocklebur (Xanthium strumarium), corn (Zea mays), crabgrass (Digitaria sanguinalis), woolly cupgrass (Eriochloa villosa), giant foxtail (Setaria faberii), Goosegrass (Eleusin indica), johnsongrass (Sorghum halepense), kochia (Kochia scoparia), lambsquarters (Chenopodium album), morningglory (Ipomoea coccinea), eastern black nightshade (Solanum ptycanthum), yellow nutsedge (Cyperus esculentus), pigweed (Amaranthus retroflexus), common ragweed (Ambrosia elation), soybean (Glycine max), common (oilseed) sunflower (Helianthus annuus), and velvetleaf (Abutilon theophrasti) were planted and treated preemergence with test chemicals formulated in a non-phytotoxic solvent mixture which included a surfactant. At the same time, plants selected from these crop and weed species and also winter barley (Hordeum vulgare), canarygrass (Phalaris minor), and chickweed (Stellaria media) were treated with postemergence applications of some of the test chemicals formulated in the same manner. Plants ranged in height from 2 to 18 cm (1- to 4-leaf stage) for postemergence treatments. […] At time of treatment, test pots were flooded to 3 cm above the soil surface, treated by application of test compounds directly to the paddy water, and then maintained at that water depth for the duration of the test. […] A dash (-) response means no test result.

The next assay relates to corn. It counts as in vivo, Zea mays.
Source text: as §1

The test system of a further assay is woolly cupgrass. It counts as in vivo, Eriochloa villosa.
Source text: as §1

The mark [1] stands for this setting: 31 g ai/ha, Preemergence, scale 0 to 100.
Setting [2] is: 62 g ai/ha, preemergence, scale 0 (no effect) to 100 (complete control).
Where [3] appears, read: preemergence, 125 g ai/ha, scale 0 (no effect) to 100 (complete control).
Where [4] appears, read: 62 g ai/ha, Preemergence, scale 0 to 100.
[5] abbreviates: Preemergence, 31 g ai/ha, scale 0 to 100 (0 no effect, 100 complete control).
Setting [6] is: 125 g ai/ha, preemergence, scale 0 (no effect) to 100 (complete control).
The mark [7] stands for this setting: preemergence, 250 g ai/ha, scale 0 (no effect) to 100 (complete control).
[8] abbreviates: Postemergence, 62 g ai/ha, scale 0 to 100, 0 no effect, 100 complete control.
Setting [9] is: Postemergence, 125 g ai/ha, scale 0 to 100, 0 no effect, 100 complete control.
[10] abbreviates: Postemergence, 250 g ai/ha, scale 0 to 100, 0 no effect, 100 complete control.

Regarding `Cn1nc(C(F)(F)F)c(C[S+]([O-])c2ccc(Br)c[n+]2[O-])c1OC(F)F` (racemic) [Compound 16], the “Blackgrass plant response rating” value is 0 with blackgrass (setting [1]), 50 in the assay with blackgrass (setting [2]) and 50 in the assay with blackgrass (setting [3]). Also, the “Corn plant response rating” value is recorded as 40 in the assay with corn (setting [1]), 95 in the assay on corn (setting [2]) and 98 in the assay on corn (setting [3]). Further, in the assay with corn (Preemergence, 250 g ai/ha), the “Plant response rating (0 to 100), Corn” value was 100. The entries for the “Cupgrass, Woolly plant response rating” value in the assay on woolly cupgrass (setting [1]), with woolly cupgrass (setting [2]) and with woolly cupgrass (setting [3]) were 20, 80 and 95, respectively. Also, the “Plant response rating (0 to 100), Cupgrass, Woolly” value in the assay on woolly cupgrass (Preemergence, 250 g ai/ha) was 100.

In the case of `Cn1nc(C(F)(F)F)c(C[S+]([O-])c2ccc(Cl)c[n+]2[O-])c1Cl` (racemic) [Compound 17], the “Blackgrass plant response rating” value with blackgrass (setting [4]) was determined as 80; with blackgrass (setting [3]), 85. For the same compound, the “Plant response rating, Blackgrass” value with blackgrass (setting [5]) was determined as 80. In the assay with blackgrass (Preemergence, 250 g ai/ha), the “Plant response rating (0 to 100), Blackgrass” value was 100. Besides, the “Corn plant response rating” value in the assay with corn (setting [4]) was 85; with corn (setting [3]) it was 98. The “Plant response rating, Corn” value with corn (setting [5]) came to 60. For the same compound, the “Plant response rating (0 to 100), Corn” value in the assay with corn (Preemergence, 250 g ai/ha) was determined as 100. The “Cupgrass, Woolly plant response rating” value with woolly cupgrass (setting [4]) stood at 100. Also, in the assay on woolly cupgrass (setting [5]), the “Plant response rating, Cupgrass, Woolly” value is given as 95. The “Plant response rating (0 to 100), Cupgrass, Woolly” value in the assay on woolly cupgrass (Preemergence, 250 g ai/ha) stood at 100.

Turning to `Cn1nc(C(F)(F)F)c(C[S+]([O-])c2cc(Cl)cc[n+]2[O-])c1Cl` (racemic) [Compound 39], the “Corn plant response rating” value in the assay on corn (setting [4]) turned out to be 5; in the assay on corn (setting [6]), 70; in the assay on corn (setting [7]) it was 80. Further, in the assay on corn (setting [5]), the “Plant response rating, Corn” value was determined as 0. The “Cupgrass, Woolly plant response rating” value in the assay with woolly cupgrass (setting [4]), with woolly cupgrass (setting [6]) and in the assay on woolly cupgrass (setting [7]) was 85 in each case. For the same compound, the “Plant response rating, Cupgrass, Woolly” value with woolly cupgrass (setting [5]) was 40.

Regarding `CC(c1c(C(F)(F)F)nn(C)c1Cl)S(=O)(=O)c1ccc(Cl)c[n+]1[O-]` (racemic) [Compound 40], in the assay on blackgrass (Postemergence, 31 g ai/ha), the “Plant response rating (0 to 100), Blackgrass” value came to 0. The “Plant response rating, Blackgrass” value in the assay with blackgrass (setting [8]), in the assay on blackgrass (setting [9]) and with blackgrass (setting [10]) was 0 in each case. Further, the “Plant response rating (0 to 100), Corn” value with corn (Postemergence, 31 g ai/ha) was 0. Besides, the “Plant response rating, Corn” value with corn (setting [8]), in the assay on corn (setting [9]) and with corn (setting [10]) was 0 each time. The “Plant response rating (0 to 100), Cupgrass, Woolly” value in the assay with woolly cupgrass (Postemergence, 31 g ai/ha) is reported as 0. The “Plant response rating, Cupgrass, Woolly” value in the assay on woolly cupgrass (setting [8]), in the assay on woolly cupgrass (setting [9]) and in the assay with woolly cupgrass (setting [10]) was 0 each time.

On to `Cn1nc(C(F)(F)F)c(C[S+]([O-])c2cc(F)cc[n+]2[O-])c1Cl` (racemic) [Compound 42], for which the figures for the “Blackgrass plant response rating” value in the assay with blackgrass (setting [4]), in the assay with blackgrass (setting [6]) and in the assay with blackgrass (setting [7]) were 70, 95 and 98, respectively. Further, the “Plant response rating, Blackgrass” value with blackgrass (setting [5]) is given as 70. The “Corn plant response rating” value in the assay on corn (setting [4]) was 25; in the assay on corn (setting [6]) it was 60; in the assay with corn (setting [7]), 80. In addition, the “Plant response rating, Corn” value with corn (setting [5]) is 0. For the same compound, the “Cupgrass, Woolly plant response rating” value was found to be 55 in the assay on woolly cupgrass (setting [4]), 85 with woolly cupgrass (setting [6]) and 90 in the assay with woolly cupgrass (setting [7]). In the assay with woolly cupgrass (setting [5]), the “Plant response rating, Cupgrass, Woolly” value stood at 35.

On to `CCn1nc(C(F)(F)F)c(C[S+]([O-])c2cccc[n+]2[O-])c1OCC(F)(F)F` (racemic) [Compound 65], for which the “Blackgrass plant response rating” value with blackgrass (setting [4]), in the assay with blackgrass (setting [6]) and in the assay with blackgrass (setting [7]) was 100 throughout. Further, the “Plant response rating (0 to 100), Blackgrass” value in the assay with blackgrass (Postemergence, 31 g ai/ha) is reported as 0. The “Plant response rating, Blackgrass” value came out at 30 in the assay on blackgrass (setting [8]), 30 in the assay on blackgrass (setting [10]) and 100 in the assay on blackgrass (setting [5]). Also, the “Corn plant response rating” value in the assay on corn (setting [4]), in the assay on corn (setting [6]) and in the assay on corn (setting [7]) was 100 throughout. The “Plant response rating (0 to 100), Corn” value in the assay on corn (Postemergence, 31 g ai/ha) is reported as 0. Further, the “Plant response rating, Corn” value in the assay with corn (setting [8]) worked out at 0; with corn (setting [9]), 50; with corn (setting [5]), 70. Also, the figures for the “Cupgrass, Woolly plant response rating” value with woolly cupgrass (setting [4]), in the assay with woolly cupgrass (setting [6]) and in the assay on woolly cupgrass (setting [7]) were 40, 100 and 100, respectively. The “Plant response rating (0 to 100), Cupgrass, Woolly” value in the assay on woolly cupgrass (Postemergence, 31 g ai/ha) was found to be 0. The “Plant response rating, Cupgrass, Woolly” value came to 0 in the assay on woolly cupgrass (setting [8]), 0 with woolly cupgrass (setting [9]), 40 with woolly cupgrass (setting [10]) and 40 in the assay on woolly cupgrass (setting [5]).

For the compound `Cn1nc(C(F)(F)F)c(CS(=O)(=O)c2ccc(Cl)c[n+]2[O-])c1OC(F)F` [Compound 7], the “Blackgrass plant response rating” value was 70 in the assay on blackgrass (setting [1]), 70 in the assay on blackgrass (setting [2]) and 85 in the assay with blackgrass (setting [3]). The “Plant response rating (0 to 100), Blackgrass” value in the assay on blackgrass (Preemergence, 250 g ai/ha) is reported as 100. Besides, the “Corn plant response rating” value in the assay on corn (setting [1]) was determined as 0; in the assay on corn (setting [2]), 0; in the assay with corn (setting [3]) it was 10. Moreover, in the assay on corn (Preemergence, 250 g ai/ha), the “Plant response rating (0 to 100), Corn” value came out at 30. In addition, the “Cupgrass, Woolly plant response rating” value in the assay on woolly cupgrass (setting [1]) turned out to be 50; in the assay with woolly cupgrass (setting [2]) it was 70; in the assay on woolly cupgrass (setting [3]), 98. Further, in the assay on woolly cupgrass (Preemergence, 250 g ai/ha), the “Plant response rating (0 to 100), Cupgrass, Woolly” value stood at 100.

As to `Cn1nc(C(F)(F)F)c(CS(=O)(=O)c2cccc[n+]2[O-])c1Cl` [Compound 9], the “Blackgrass plant response rating” value with blackgrass (setting [1]) was 0; with blackgrass (setting [2]), 50; with blackgrass (setting [3]), 50. Also, the “Plant response rating (0 to 100), Blackgrass” value in the assay with blackgrass (Preemergence, 250 g ai/ha) is given as 95. For the same compound, the “Corn plant response rating” value in the assay on corn (setting [1]) was 20; in the assay with corn (setting [3]), 98. The “Plant response rating (0 to 100), Corn” value in the assay with corn (Preemergence, 250 g ai/ha) is recorded as 98. In addition, the “Cupgrass, Woolly plant response rating” value is recorded as 0 in the assay on woolly cupgrass (setting [1]) and 100 in the assay with woolly cupgrass (setting [3]). For the same compound, the “Plant response rating (0 to 100), Cupgrass, Woolly” value with woolly cupgrass (Preemergence, 250 g ai/ha) is 100.

Take `CC(c1c(C(F)(F)F)nn(C)c1Cl)S(=O)(=O)c1cccc[n+]1[O-]` (centres unmarked) [Compound 10]: the “Blackgrass plant response rating” value with blackgrass (setting [1]) is on record as 0; in the assay with blackgrass (setting [2]) it was 70; in the assay with blackgrass (setting [3]), 98. Also, the “Plant response rating (0 to 100), Blackgrass” value in the assay with blackgrass (Preemergence, 250 g ai/ha) is recorded as 100. The “Corn plant response rating” value in the assay on corn (setting [1]) was 0; in the assay with corn (setting [2]) it was 5; in the assay with corn (setting [3]), 60. In addition, in the assay on corn (Preemergence, 250 g ai/ha), the “Plant response rating (0 to 100), Corn” value was found to be 95. For the same compound, the “Cupgrass, Woolly plant response rating” value was 75 in the assay with woolly cupgrass (setting [1]), 75 with woolly cupgrass (setting [2]) and 100 in the assay on woolly cupgrass (setting [3]). For the same compound, the “Plant response rating (0 to 100), Cupgrass, Woolly” value in the assay with woolly cupgrass (Preemergence, 250 g ai/ha) is 100.

For the compound `CCc1cc[n+]([O-])c([S+]([O-])Cc2c(C(F)(F)F)nn(C)c2OCC(F)(F)F)c1` (centres unmarked) [Compound 59], the figures for the “Blackgrass plant response rating” value with blackgrass (setting [4]), in the assay on blackgrass (setting [6]) and in the assay on blackgrass (setting [7]) were 95, 95 and 100, respectively. The “Plant response rating, Blackgrass” value with blackgrass (setting [5]) worked out at 60. In addition, the “Corn plant response rating” value in the assay on corn (setting [4]) is 45; with corn (setting [6]) it was 100; with corn (setting [7]), 100. In the assay on corn (setting [5]), the “Plant response rating, Corn” value worked out at 25. The “Cupgrass, Woolly plant response rating” value came out at 80 with woolly cupgrass (setting [4]), 80 in the assay with woolly cupgrass (setting [6]) and 100 in the assay with woolly cupgrass (setting [7]). For the same compound, the “Plant response rating, Cupgrass, Woolly” value with woolly cupgrass (setting [5]) turned out to be 0.

On to `CCn1nc(C(F)(F)F)c(C(C)S(=O)(=O)c2cccc[n+]2[O-])c1OCC(F)(F)F` (centres unmarked) [Compound 69], for which the “Plant response rating (0 to 100), Blackgrass” value in the assay with blackgrass (Postemergence, 31 g ai/ha) came to 0. The “Plant response rating, Blackgrass” value in the assay with blackgrass (setting [8]) is 0; in the assay with blackgrass (setting [9]), 85; in the assay with blackgrass (setting [10]), 95. Also, the “Plant response rating (0 to 100), Corn” value in the assay with corn (Postemergence, 31 g ai/ha) came to 0. Moreover, the “Plant response rating, Corn” value with corn (setting [8]), with corn (setting [9]) and with corn (setting [10]) was 0 each time. The “Plant response rating (0 to 100), Cupgrass, Woolly” value in the assay on woolly cupgrass (Postemergence, 31 g ai/ha) is recorded as 0. Further, the “Plant response rating, Cupgrass, Woolly” value with woolly cupgrass (setting [8]), with woolly cupgrass (setting [9]) and in the assay with woolly cupgrass (setting [10]) was 0 each time.

(Values after US20100298141A1, “SUBSTITUTED PYRIDINE N-OXIDE HERBICIDES” (E. I. DU PONT DE NEMOURS AND COMPANY, priority 2007, published 2010).)
